From ChEMBL document CHEMBL1697781, “Assessment of the health effects of chemicals in humans: II. Construction of an adverse effects database for QSAR modeling” (Curr Drug Discov Technol, 2004)

Columns and labels:
Settings in all cases: human; call rule not given here
[1] = test system: Hepatotoxicity; experiment: FDA HLAED, alkaline phosphatase increase
[2] = test system: Hepatotoxicity; experiment: FDA HLAED, serum glutamic oxaloacetic transaminase (SGOT) increase
[3] = test system: Hepatotoxicity; experiment: FDA HLAED, liver enzyme composite activity
[4] = test system: Hepatotoxicity; experiment: FDA HLAED, serum glutamic pyruvic transaminase (SGPT) increase
[5] = test system: Hepatotoxicity; experiment: FDA HLAED, gamma-glutamyl transferase (GGT) increase
[6] = test system: Hepatotoxicity; experiment: FDA HLAED, lactate dehydrogenase (LDH) increase
Wherever GGT Increase - Index Value is given: reference of the scale not given here.
Wherever LDH Increase - Index Value is given: reference of the scale not given here.

| SMILES | Alkaline Phosphatase Increase - Activity Score [1] | Alkaline Phosphatase Increase - Index Value [1] | Alkaline Phosphatase Increase - Number of Reports [1] | SGOT Increase - Activity Score [2] | SGOT Increase - Index Value [2] | SGOT Increase - Number of Reports [2] | Composite Activity - Active [3] | Composite Activity - Marginal [3] | Composite Activity - Score [3] | SGPT Increase - Activity Score [4] | SGPT Increase - Index Value [4] | SGPT Increase - Number of Reports [4] | GGT Increase - Activity Score [5] | GGT Increase - Index Value [5] | GGT Increase - Number of Reports [5] | also measured |
| --- | --- | --- | --- | --- | --- | --- | --- | --- | --- | --- | --- | --- | --- | --- | --- | --- |
| Oc1ncnc2[nH]ncc12 [ALLOPURINOL] | Active | 4.7 | >= 4 | Active | 15 | >= 4 | 4 | 0 | Active | Active | 9.4 | >= 4 | Active | 9.4 | >= 4 |  |
| Cn1cnc([N+](=O)[O-])c1Sc1ncnc2nc[nH]c12 [AZATHIOPRINE] | Active | 4.5 | >= 4 | Active | 5 | >= 4 |  |  |  | Active | 5.6 | >= 4 | Marginally Active | 3.3 | >= 4 | Composite Activity - Active ([3]; Liver): 3; Composite Activity - Marginal ([3]; Liver): 1; Composite Activity - Score ([3]; Liver): Active |
| NC(=O)N1c2ccccc2C=Cc2ccccc21 [CARBAMAZEPINE] | Marginally Active | 3.3 | >= 4 |  |  |  | 1 | 1 |  |  |  |  | Active | 4.4 | >= 4 |  |
| O=NN(CCCl)C(=O)NCCCl [CARMUSTINE] |  |  |  |  |  |  | 1 | 0 |  |  |  |  |  |  |  | LDH Increase - Activity Score [6]: Active; LDH Increase - Index Value [6]: 14.6; LDH Increase - Number of Reports [6]: >= 4 |
| Clc1cccc(Cl)c1N=C1NCCN1 [CLONIDINE] | Active | 11.5 | >= 4 |  |  |  |  |  |  | Active | 7.6 | >= 4 | Active | 9.5 | >= 4 | Composite Activity - Active ([3]; Liver): 2; Composite Activity - Marginal ([3]; Liver): 0; Composite Activity - Score ([3]; Liver): Active |
| CN(C)CCC=C1c2ccccc2COc2ccccc21 [DOXEPIN] | Active | 434.8 | < 4 |  |  |  | 2 | 0 | Active |  |  |  | Active | 434.8 | < 4 |  |
| CCN(CC)CCOc1ccc(/C(=C(/Cl)c2ccccc2)c2ccccc2)cc1 [ENCLOMIPHENE] |  |  |  | Active | 18.8 | >= 4 | 3 | 0 | Active | Active | 25 | >= 4 | Active | 15.6 | >= 4 |  |
| CCOC(=O)CCC(=O)O[C@H]1[C@H](O[C@@H]2[C@@H](C)[C@H](O[C@H]3C[C@@](C)(OC)[C@@H](O)[C@H](C)O3)[C@@H](C)C(=O)O[C@H](CC)[C@@](C)(O)[C@H](O)[C@@H](C)C(=O)[C@H](C)C[C@@]2(C)O)O[C@H](C)C[C@@H]1N(C)C [ERYTHROMYCIN ETHYLSUCCINATE] | Active | 7.3 | >= 4 | Active | 7.9 | >= 4 | 3 | 0 | Active | Active | 8.5 | >= 4 |  |  |  |  |
| CCC(=O)O[C@H]1[C@H](O[C@@H]2[C@@H](C)[C@H](O[C@H]3C[C@@](C)(OC)[C@@H](O)[C@H](C)O3)[C@@H](C)C(=O)O[C@H](CC)[C@@](C)(O)[C@H](O)[C@@H](C)C(=O)[C@H](C)C[C@@]2(C)O)O[C@H](C)C[C@@H]1N(C)C [ERYTHROMYCIN PROPIONATE] | Active | 7.3 | >= 4 | Active | 7.9 | >= 4 | 3 | 0 | Active | Active | 8.5 | >= 4 |  |  |  |  |
| CC[C@H]1OC(=O)[C@H](C)[C@@H](O[C@H]2C[C@@](C)(OC)[C@@H](O)[C@H](C)O2)[C@H](C)[C@@H](O[C@@H]2O[C@H](C)C[C@H](N(C)C)[C@H]2O)[C@](C)(O)C[C@@H](C)C(=O)[C@H](C)[C@@H](O)[C@]1(C)O [ERYTHROMYCIN] | Active | 7.3 | >= 4 | Active | 7.9 | >= 4 | 3 | 0 | Active | Active | 8.5 | >= 4 |  |  |  |  |
| O=c1[nH]cc(F)c(=O)[nH]1 [FLUOROURACIL] | Active | 5.5 | >= 4 |  |  |  | 1 | 1 |  |  |  |  |  |  |  | LDH Increase - Activity Score [6]: Marginally Active; LDH Increase - Index Value [6]: 3.6; LDH Increase - Number of Reports [6]: >= 4 |
| COC1=CC(=O)C[C@@H](C)[C@]12Oc1c(Cl)c(OC)cc(OC)c1C2=O [GRISEOFULVIN] | Active | 5.5 | >= 4 | Active | 5.5 | >= 4 | 4 | 0 | Active | Active | 6.9 | >= 4 | Active | 5.5 | < 4 |  |
| CC(C)Cc1ccc(C(C)C(=O)O)cc1 (configuration not stated) [IBUPROFEN] | Marginally Active | No Shipping Units | >= 4 | Marginally Active | No Shipping Units | >= 4 | 0 | 3 |  | Marginally Active | No Shipping Units | >= 4 |  |  |  |  |
| CN(Cc1cnc2nc(N)nc(N)c2n1)c1ccc(C(=O)N[C@@H](CCC(=O)O)C(=O)O)cc1 [METHOTREXATE] |  |  |  | Active | 5.3 | >= 4 | 2 | 1 | Active | Active | 6.4 | >= 4 |  |  |  | LDH Increase - Activity Score [6]: Marginally Active; LDH Increase - Index Value [6]: 3.5; LDH Increase - Number of Reports [6]: >= 4 |
| NNCCc1ccccc1 [PHENELZINE] |  |  |  | Active | 4.9 | >= 4 |  |  |  | Active | 4.9 | >= 4 | Active | 4.9 | >= 4 | Composite Activity - Active ([3]; Liver): 3; Composite Activity - Marginal ([3]; Liver): 0; Composite Activity - Score ([3]; Liver): Active |
| NC(=O)c1ncn([C@@H]2O[C@H](CO)[C@@H](O)[C@H]2O)n1 [RIBAVIRIN] | Inactive |  | < 4 | Inactive |  | < 4 | 0 | 0 | Inactive | Inactive |  | < 4 | Inactive |  | < 4 |  |
| CC(=O)CC(c1ccccc1)c1c(O)c2ccccc2oc1=O (configuration not stated) [WARFARIN] | Marginally Active | No Shipping Units | >= 4 | Marginally Active | No Shipping Units | >= 4 | 0 | 3 |  | Marginally Active | No Shipping Units | >= 4 |  |  |  |  |
